Values of other authors in EP0661967B1, “COMBINED VIRUSTATIC ANTIMEDIATOR (COVAM) TREATMENT OF COMMON COLDS” (UNIVERSITY OF VIRGINIA PATENT FOUNDATION, priority 1991, dated 1993).

Legend:
[1] = system: rhinovirus; settings: in vivo
[2] = system: rhinovirus

Row | SMILES | effect on nasal symptoms and nasal mucus production [1] | mean total symptom scores during four days of treatment [1] | mean total symptoms score lower than that for the group receiving placebo ([2]; four days of treatment) | mean total symptoms score during the four days of treatment ([2]; loading dose 400 or 500 mg, then 200 or 500 mg three times a day for five days, begun 6 hours after virus challenge, placebo 17.35±2.6, p=0.08) | headache, malais, myalgia, and cough ([2]; treated group versus placebo)
1 | CC(C)[N+]1(C)[C@@H]2CC[C@H]1C[C@@H](OC(=O)C(CO)c1ccccc1)C2 (some centres unmarked) [ipratropium] | mild beneficial effect | 10±1.6 | – | – | –
2 | COc1ccc2cc([C@H](C)C(=O)O)ccc2c1 [naproxen] | – | – | thirty four | 12±1.65 | significantly reduced
